From US7507739B2, “6-[(substituted)phenyl]triazolopyrimidines as anticancer agents” (Wyeth, priority 2003, dated 2009)
Marks after values point to notes of the source that are not given here.

Tests used:
[1] = system: U87-MG Human Glioblastoma; experiment: Human tumor xenograft test, U87-MG; assay type: in vivo, athymic mice
Description: The ability of compounds of this invention to inhibit tumor growth in animals is studied in the athymic mouse xenograft standard pharmacological test. Female nu/nu mice in an outbred albino background are obtained from Charles River Laboratories (Wilmington, Mass.). Animals are injected subcutaneously on the flank with the desired tumor cell suspension. Several days later, mice with tumors of approximately 150 mm^3 are selected from those injected (staged) and randomly distributed into groups of 5-10. The day of staging is called day 0. Compounds of the invention, usually formulated in saline (exceptions are noted in tables), are administered to animals by intravenous injection or oral gavage on various schedules starting on day 0 or 1, as noted in the tables. The control group in each experiment is dosed with vehicle on the same schedule. Tumor size is measured every 3-7 days with calipers in two orthogonal dimensions, and tumor volume is calculated from the formula volume=[(length×width^2)/2].
Tumor/Control (T/C) is obtained by dividing the mean tumor volume of the treated group by the mean tumor volume of the control group on each measurement day. A treatment dose is defined as active if it produced a statistically significant T/C of 0.50 or less. A p value≦0.05, determined by one-side Student's t-test, is required for statistical significance. A treatment dose is defined as toxic if more than 10% of the animals died from a compound-related toxicity.

[2] = system: MAP-rich tubulin; experiment: Tubulin polymerization test with MAP-rich tubulin; assay type: biochemical, bovine; conditions: 0.3 μM compound, 20 min, fold enhancement over control
Description: Medium is RPMI-1640 with L-glutamine, supplemented with 10% heat-inactivated fetal calf serum, 100 units/ml penicillin, and 100 μg/ml streptomycin (Gibco, Grand Island, N.Y.). Microtubule-associated protein (MAP)-rich tubulin, containing about 70% tubulin and 30% MAPs (#ML113), and highly purified tubulin (>99% pure, #TL238), both from bovine brain, are obtained from Cytoskeleton, Inc., Denver, Colo. PEM buffer (80 mM piperazine-N,N′-bis[2-ethanesulfonic acid], pH 6.9, 1 mM ethylene glycol-bis(β-aminoethyl ether)-N,N,N′,N′-tetraacetic acid, 1 mM magnesium chloride) and guanosine 5′-triphosphate (GTP) are also obtained from Cytoskeleton. [3H]paclitaxel, specific activity 14.7 Ci/mmol, is purchased from Moravek Biochemicals (Brea, Calif.). [^3H]vinblastine, specific activity 9.60 Ci/mmol and MicroSpin G-50 columns are obtained from Amersham Biosciences (Piscataway, N.J.). […] Other reagents are obtained from Sigma (St. Louis, Mo.).
Two variations of this procedure are done, one using MAP-rich tubulin and one using pure tubulin.
MAP-rich tubulin is dissolved in ice-cold PEM buffer containing 1 mM GTP (GPEM buffer) at a concentration of 1.3 mg/mL. The solution is centrifuged at top speed in an Eppendorf model 5415C microcentrifuge (Brinkmann Instruments, Westbury, N.Y.) for 10 min at […] immediately before use. The tubulin solution is added to wells of a ½-area 96-well plate (Costar No. 3696, Corning, Inc., Corning, N.Y.) already containing the compounds of interest. Each compound is tested in duplicate at a final concentration of 0.3 μM in a volume of 110 μL per well. The final DMSO concentration in all wells is 0.3%. Control reactions, which received compound solvent only, are done in quadruplicate. The plate is put in a SpectraMax Plus plate reader (Molecular Devices Corp. Sunnyvale, Calif.) thermostated at 24° and the absorbance of each well at 340 nm, a measure of the appearance of turbidity due to tubulin polymer formation, is determined every minute for 60 minutes. The absorbance at time 0 for each well is subtracted from each of the subsequent absorbance readings for that well, and then the duplicates are averaged.
In this assay, control reactions with MAP-rich tubulin show an S-shaped absorbance profile characterized by three phases: first, a lag phase during which no change in absorbance occurs; second, a polymerization phase in which absorbance increases; and third, a plateau phase in which absorbance has reached a maximum and little or no further change occurs. Polymerization enhancers such as paclitaxel and docetaxel shorten or eliminate the lag phase, increase the rate of the polymerization phase, and often increase the height of the plateau. […] The compounds of this invention have a taxane-like effect on the polymerization reaction. This has been expressed quantitatively in Table 5 by dividing the mean A340 of each sample at 20 min by the mean A340 of the control at 20 min to give a fold enhancement over control. […] Examples of this invention have factors ranging up to 8.1, with the majority in the 5 to 6-fold range.

[3] = system: COLO 205 cells; experiment: MTS cytotoxicity test with COLO 205 cells; assay type: cell-based, human; conditions: Homo sapiens, COLO 205, 72 h, 3 days
Description: The assay, which is sold in kit form by Promega (Madison, Wis.; CellTiter 96 AQueous Non-Radioactive Cell Proliferation Assay), is based on the conversion by viable cells, but not by dead cells, of the tetrazolium salt, MTS (3-(4,5-dimethylthiazol-2-yl)-5-(3-carboxymethoxyphenyl)-2-(4-sulphophenyl)-2H-tetrazolium, inner salt), into a water-soluble colored formazan which is detected by spectrophotometry. Compounds are tested at nine concentrations, in order to determine IC50 values. For the test procedure, cells are harvested by trypsinization (or, in the case of non-adherent cells, by simple resuspension), washed, counted and distributed to wells of 96-well flat-bottom microtiter plates at 1000 cells per well in 200 μL of medium. In addition, one row of wells on a separate plate received cells as above (“time 0” plate). All plates are incubated at 37° in humidified 5% CO2 in air for about 24 hr.
On day 2, compounds for test are diluted and added to wells. Compounds are dissolved in DMSO at 10 mg/mL. For each compound, nine serial 2-fold dilutions are prepared in DMSO. Ten μL of each dilution in DMSO is transferred to 100 μL of medium, mixed well, and then 5 μL of this dilution is transferred in quadruplicate to wells containing cells. The final high concentration of each compound is typically 5 μM. Plates are returned to the incubator for three days. At the time of drug addition to the experimental plates, the MTS assay is run on the “time 0” plate. This produced the “time 0 MTS value” which is related to the number of viable cells per well at the time of drug addition.
After three days of culture with test compounds (day 5 overall), the MTS assay is done on all wells of the experimental plates. The absorbance values of the quadruplicate sample wells are averaged and divided by the average of the “time 0” values. The average of control wells without drug, divided by the average “time 0” value, gave the maximal relative increase in MTS color yield due to cell growth during the final three days of culture. The average of control wells with high drug concentration, divided by the “time 0” value, gave the minimal relative color yield for cells that are completely killed. The nine values for each compound are plotted against concentration, and the concentration that produced a relative color yield half way between the maximum and minimum is taken as the IC50 value.
COLO 205 is a human colon carcinoma cell line that is used for comparative testing of the examples of this invention and several reference compounds. This line is sensitive to paclitaxel and vincristine.

[4] = U87-MG, 20 mg/kg PO, days 1, 5, 9

Structure (SMILES)	A340 Compound/A340 Control [2]	IC50 [3] [nM]	further results
C[C@H](Nc1c(-c2c(F)cc(OCCCN3CCCC3)cc2F)c(Cl)nc2ncnn12)C(F)(F)F [Example 9, 5-Chloro-6-[2,6-difluoro-4-(3-pyrrolidin-1-ylpropoxy)phenyl]-N-[(1S)-2,2,2-trifluoro-1-methylethyl][1,2,4]triazolo[1,5-a]pyrimidin-7-amine]	5.8	44	T/C on day 0 [1, 4]: 1.04; T/C on day 3 [1, 4]: 0.93; T/C on day 7 [1, 4]: 0.70; T/C on day 10 [1, 4]: 0.50**; T/C on day 13 [1, 4]: 0.34**; T/C on day 17 [1, 4]: 0.45**; tumor growth inhibition (activity call) ([1]; U-87 MG, oral dosing, 20 mg/kg): active
C[C@H](Nc1c(-c2c(F)cc(OCCCN3CCC3)cc2F)c(Cl)nc2ncnn12)C(F)(F)F [Example 12, 6-[4-(3-Azetidin-1-ylpropoxy)-2,6-difluorophenyl]-5-chloro-N-[(1S)-2,2,2-trifluoro-1-methylethyl][1,2,4]triazolo[1,5-a]pyrimidin-7-amine]	2.9	326	
C[C@H](Nc1c(-c2ccc(OCCCN(C)C)cc2F)c(Cl)nc2ncnn12)C(F)(F)F [Example 13, 5-Chloro-6-{4-[3-(dimethylamino)propoxy]-2-fluorophenyl}-N-[(1S)-2,2,2-trifluoro-1-methylethyl][1,2,4]triazolo[1,5-a]pyrimidin-7-amine]	5.4	262	
CNCCOc1cc(F)c(-c2c(Cl)nc3ncnn3c2N[C@@H](C)C(F)(F)F)c(F)c1 [Example 14, 5-Chloro-6-{2,6-difluoro-4-[2-(methylamino)ethoxy]phenyl}-N-[(1S)-2,2,2-trifluoro-1-methylethyl][1,2,4]triazolo[1,5-a]pyrimidin-7-amine]	1.5	881	
C[C@H](Nc1c(-c2c(F)cc(OCCCCN(C)C)cc2F)c(Cl)nc2ncnn12)C(F)(F)F [Example 15, 5-Chloro-6-{4-[4-(dimethylamino)butoxy]-2,6-difluorophenyl}-N-[(1S)-2,2,2-trifluoro-1-methylethyl][1,2,4]triazolo[1,5-a]pyrimidin-7-amine]	5.5	276	
C[C@H](Nc1c(-c2c(F)cc(OCCN(C)C)cc2F)c(Cl)nc2ncnn12)C(F)(F)F [Example 16, 5-Chloro-6-{4-[2-(dimethylamino)ethoxy]-2,6-difluorophenyl}-N-[(1S)-2,2,2-trifluoro-1-methylethyl][1,2,4]triazolo[1,5-a]pyrimidin-7-amine]	2.4	581	
C[C@H](Nc1c(-c2c(F)cc(OCCN3CCOCC3)cc2F)c(Cl)nc2ncnn12)C(F)(F)F [Example 17, 5-Chloro-6-[2,6-difluoro-4-(2-morpholin-4-ylethoxy)phenyl]-N-[(1S)-2,2,2-trifluoro-1-methylethyl][1,2,4]triazolo[1,5-a]pyrimidin-7-amine]	4.8	245	
C[C@H](Nc1c(-c2c(F)cc(SCCCN(C)C)cc2F)c(Cl)nc2ncnn12)C(F)(F)F [Example 18, 5-Chloro-6-(4-{[3-(dimethylamino)propyl]thio}-2,6-difluorophenyl)-N-[(1S)-2,2,2-trifluoro-1-methylethyl][1,2,4]triazolo[1,5-a]pyrimidin-7-amine]	5.8	192	
C[C@H](Nc1c(-c2c(F)cc(N(C)CCCN(C)C)cc2F)c(Cl)nc2ncnn12)C(F)(F)F [Example 22, N^1-[4-(5-Chloro-7-{[(1S)-2,2,2-trifluoro-1-methylethyl]amino}[1,2,4]triazolo[1,5-a]pyrimidin-6-yl)-3,5-difluorophenyl]-N′,N^3,N^3-trimethylpropane-1,3-diamine]	1.2	1670	
C[C@H](Nc1c(-c2c(F)cc(NCCCN(C)C)cc2F)c(Cl)nc2ncnn12)C(F)(F)F [Example 23, N^1-[4-(5-Chloro-7-{[(1S)-2,2,2-trifluoro-1-methylethyl]amino}[1,2,4]triazolo[1,5-a]pyrimidin-6-yl)-3,5-difluorophenyl]-N^3,N^3-dimethylpropane-1,3-diamine]	4.2	719	
C[C@H](Nc1c(-c2c(F)cc(NCCN(C)C)cc2F)c(Cl)nc2ncnn12)C(F)(F)F [Example 24, N^1-[4-(5-Chloro-7-{[(1S)-2,2,2-trifluoro-1-methylethyl]amino}[1,2,4]triazolo[1,5-a]pyrimidin-6-yl)-3,5-difluorophenyl]-N^2,N^2-dimethylethane-1,2-diamine]	1.2	1730	
C[C@H](Nc1c(-c2c(F)cc(CCCCN(C)C)cc2F)c(Cl)nc2ncnn12)C(F)(F)F [Example 26, 5-Chloro-6-{4-[4-(dimethylamino)butyl]-2,6-difluorophenyl}-N-[(1S)-2,2,2-trifluoro-1-methylethyl][1,2,4]triazolo[1,5-a]pyrimidin-7-amine]	4.6	665	
